Source: patent US10975037B2 (priority 2018, dated 2021)
Structures can show the parent of a compound that is named as a salt. Where two headings read alike, the source gives them in different places.

Assays:
full-length human RORγt = full-length human RORγt (Homo sapiens (Human), UniProt P51449); assay: RORγt (full-length human) reporter assay, conditions A or B, HEK293T cells; format: cell-based; conditions: for inhibition at 6 µM: read-out: RORγt (FL) Reporter Assay A or B, % inhibition @ 6 μM; for IC50: RORγt (FL) Reporter Assay A or B, IC50, HEK293T cells; for inhibition at 3 µM: 3 μM compound concentration (footnote *); for inhibition at 0.67 µM: 0.67 μM compound concentration (footnote ****); for inhibition at 2 µM: 2 μM compound concentration
full-length human RORγt, sequence (P51449 other isoform, or with tags, fused parts or gaps): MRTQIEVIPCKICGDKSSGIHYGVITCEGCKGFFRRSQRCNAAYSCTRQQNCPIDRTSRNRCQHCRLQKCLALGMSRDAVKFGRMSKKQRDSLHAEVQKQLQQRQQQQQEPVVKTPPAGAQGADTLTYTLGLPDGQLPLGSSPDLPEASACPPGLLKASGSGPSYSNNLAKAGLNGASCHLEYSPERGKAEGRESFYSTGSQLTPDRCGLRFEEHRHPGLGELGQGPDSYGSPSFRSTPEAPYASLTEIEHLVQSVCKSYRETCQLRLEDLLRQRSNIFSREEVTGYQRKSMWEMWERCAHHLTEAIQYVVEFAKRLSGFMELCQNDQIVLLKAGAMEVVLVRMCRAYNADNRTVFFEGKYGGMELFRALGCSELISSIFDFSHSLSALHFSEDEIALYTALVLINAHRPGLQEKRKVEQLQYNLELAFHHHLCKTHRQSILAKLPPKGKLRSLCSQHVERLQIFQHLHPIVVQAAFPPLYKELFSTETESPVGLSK
In short: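 After 16–20 h, dual firefly/Renilla luciferase luminescence was read. Firefly signal was normalized to DMSO and saturating reference compound, then to Renilla, and fitted for IC50; % inhibition is versus DMSO.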

[1] = target: human RORγt ligand binding domain (RORγt LBD) (Homo sapiens (Human), UniProt P51449); assay: RORγt ThermoFluor® assay (thermal shift binding)
human RORγt ligand binding domain (RORγt LBD), sequence (P51449 other isoform, or with tags, fused parts or gaps): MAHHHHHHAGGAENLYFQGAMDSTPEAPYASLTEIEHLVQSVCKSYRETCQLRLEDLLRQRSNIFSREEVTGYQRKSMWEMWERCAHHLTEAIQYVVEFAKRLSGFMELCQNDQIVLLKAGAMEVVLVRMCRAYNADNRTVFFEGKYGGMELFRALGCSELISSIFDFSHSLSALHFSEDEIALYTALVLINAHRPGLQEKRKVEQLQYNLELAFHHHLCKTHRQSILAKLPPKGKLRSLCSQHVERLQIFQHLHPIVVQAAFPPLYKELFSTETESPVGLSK
In short: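 Thermal shift with 0.065 mg/mL RORγt LBD and 60 μM 1,8-ANS in 100 mM Hepes pH 7.0, 10 mM NaCl, 2.5 mM GSH, 0.002% Tween-20.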

[2] = HEK-293T, 6 μM compound concentration
[3] = read-out: ThermoFluor® Assay, Kd
[4] = HEK-293T, read-out: RORγt (FL) Reporter Assay A or B, % inhibition

SMILES | IC50 (full-length human RORγt) [nM] | Kd [1, 3] [nM] | inhibition at 2 µM (full-length human RORγt; [4]) [%] | other results
CCn1nc(C(=O)NC[C@]2(C(=O)O)CC[C@@H](S(C)(=O)=O)CC2)c(Cl)c1-c1ccc(CC(C)(C)C(F)(F)F)cc1OC(F)F [Example 119, (1s*,4s*)-1-((4-Chloro-5-(2-(difluoromethoxy)-4-(3,3,3-trifluoro-2,2-dimethylpropyl)phenyl)-1-ethyl-1H-pyrazole-3-carboxamido)methyl)-4-(methylsulfonyl)cyclohexane-1-carboxylic Acid] | > 6000 | – | – | inhibition at 6 µM (full-length human RORγt; [2]): 14%; Kd ([1]; ThermoFluor® Assay, Kd): 1500 nM
CCn1nc(C(=O)NC[C@H]2CC[C@H](S(C)(=O)=O)CC2)c(C)c1-c1ccc(CCCC(F)(F)F)cc1OC(F)F [Example 78, 5-(2-(Difluoromethoxy)-4-(4,4,4-trifluorobutyl)phenyl)-1-ethyl-4-methyl-N-(((1r,4r)-4-(methylsulfonyl)cyclohexyl)methyl)-1H-pyrazole-3-carboxamide] | 12 | 0.59 | – | inhibition at […] (full-length human RORγt; HEK-293T, 0.22 μM compound concentration (footnote *******), read-out: RORγt (FL) Reporter Assay A or B, % inhibition): 93%
CCn1nc(C(=O)NC[C@]2(O)CC[C@@H](S(C)(=O)=O)CC2)c(Cl)c1-c1ccc([C@@](C)(O)CC(F)(F)F)cc1OC(F)F (single isomer, unassigned) [Example 99, 4-Chloro-5-(2-(difluoromethoxy)-4-((S*)-4,4,4-trifluoro-2-hydroxybutan-2-yl)phenyl)-1-ethyl-N-(((1s,4R)-1-hydroxy-4-(methylsulfonyl)cyclohexyl)methyl)-1H-pyrazole-3-carboxamide] | 2600 | – | – | inhibition at 3 µM (full-length human RORγt; [4]): -21%; Kd ([1]; ThermoFluor® Assay, Kd): 230 nM
CCn1nc(C(=O)NC[C@H]2CC[C@H](S(C)(=O)=O)CC2)c(Cl)c1-c1ccc(CC(C(F)(F)F)C(F)(F)F)cc1OC(F)F [Example 86, 4-Chloro-5-(2-(difluoromethoxy)-4-(3,3,3-trifluoro-2-(trifluoromethyl)propyl)phenyl)-1-ethyl-N-(((1r,4r)-4-(methylsulfonyl)cyclohexyl)methyl)-1H-pyrazole-3-carboxamide] | 5.6 | 0.17 | – | inhibition at 0.67 µM (full-length human RORγt; [4]): 103%
CCn1nc(C(=O)NC[C@]2(O)CC[C@@H](S(C)(=O)=O)CC2)c(Cl)c1-c1ccc(CC(C)C)cc1OC [Example 73, 4-Chloro-1-ethyl-N-(((1s,4s)-1-hydroxy-4-(methylsulfonyl)cyclohexyl)methyl)-5-(4-isobutyl-2-methoxyphenyl)-1H-pyrazole-3-carboxamide] | 11 | 0.63 | 61 | –
CCn1nc(C(=O)NC[C@@]2(O)CC[C@H](S(C)(=O)=O)C[C@@H]2N)c(Cl)c1-c1ccc(CC(C)(C)C(F)(F)F)cc1OC(F)F (stereo in doubt) [Example 7, N-(((1S*,2S*,4S*)-2-Amino-1-hydroxy-4-(methylsulfonyl)cyclohexyl)methyl)-4-chloro-5-(2-(difluoromethoxy)-4-(3,3,3-trifluoro-2,2-dimethylpropyl)phenyl)-1-ethyl-1H-pyrazole-3-carboxamide hydrobromide] | 68 | – | – | inhibition at 1 µM (full-length human RORγt; HEK-293T, 1 μM compound concentration (footnote ***), read-out: RORγt (FL) Reporter Assay A or B, % inhibition): 103%; Kd ([1]; ThermoFluor® Assay, Kd): 2.1 nM
CCn1nc(C(=O)NC[C@]2(O)CC[C@@H](S(C)(=O)=O)C[C@H]2O)c(C)c1-c1ccc(C[C@@H](C)C(F)(F)F)cc1OC(F)F (stereo in doubt) [Example 140, 5-(2-(Difluoromethoxy)-4-((R*)-3,3,3-trifluoro-2-methylpropyl)phenyl)-N-(((1R*,2R*,4R*)-1,2-dihydroxy-4-(methylsulfonyl)cyclohexyl)methyl)-1-ethyl-4-methyl-1H-pyrazole-3-carboxamide] | 15 | – | – | inhibition at 3 µM (full-length human RORγt; [4]): 109%; Kd ([1]; ThermoFluor® Assay, Kd): 2.4 nM
COc1cc(N[C@H](C)C(F)(F)F)ccc1-c1c(Cl)c(C(=O)NC[C@H]2CC[C@H](S(C)(=O)=O)CC2)nn1CC(C)C [Example 28, 4-Chloro-1-isobutyl-5-(2-methoxy-4-(((R)-1,1,1-trifluoropropan-2-yl)amino)phenyl)-N-(((1r,4R)-4-(methylsulfonyl)cyclohexyl)methyl)-1H-pyrazole-3-carboxamide] | 23 | 2.5 | 103 | –
CCn1nc(C(=O)NC[C@H]2CC[C@H](S(C)(=O)=O)CC2)c(Cl)c1-c1ccc(OCCC(F)(F)F)cc1OC [Example 213, 4-Chloro-1-ethyl-5-(2-methoxy-4-(3,3,3-trifluoropropoxy)phenyl)-N-(((1r,4r)-4-(methylsulfonyl)cyclohexyl)methyl)-1H-pyrazole-3-carboxamide] | 77 | 34 | 77 | –
CCn1nc(C(=O)NC[C@H]2CC[C@H](S(C)(=O)=O)CC2)c(C)c1-c1ccc(CCCC(F)(F)F)cc1OC [Example 82, 1-Ethyl-5-(2-methoxy-4-(4,4,4-trifluorobutyl)phenyl)-4-methyl-N-(((1r,4r)-4-(methylsulfonyl)cyclohexyl)methyl)-1H-pyrazole-3-carboxamide] | 14 | 4.1 | – | inhibition at 0.67 µM (full-length human RORγt; [4]): 87%
CCn1nc(C(=O)NC[C@]2(O)CC[C@@H](S(C)(=O)=O)CC2)c(Cl)c1-c1ccc(CCC(F)(F)F)cc1F [Example 180, 4-Chloro-1-ethyl-5-(2-fluoro-4-(3,3,3-trifluoropropyl)phenyl)-N-(((1s,4s)-1-hydroxy-4-(methylsulfonyl)cyclohexyl)methyl)-1H-pyrazole-3-carboxamide] | 66 | 46 | 41 | –
CCn1nc(C(=O)NC[C@H]2CC[C@H](S(C)(=O)=O)CC2)c(Cl)c1-c1ccc(OCC(C)(F)F)cc1OC [Example 214, 4-Chloro-5-(4-(2,2-difluoropropoxy)-2-methoxyphenyl)-1-ethyl-N-(((1r,4r)-4-(methylsulfonyl)cyclohexyl)methyl)-1H-pyrazole-3-carboxamide] | 84 | 39 | 79 | –
Cn1nc(C(=O)NC[C@]2(O)CC[C@@H](S(C)(=O)=O)CC2)c(Cl)c1-c1ccc(CCCC(F)(F)F)cc1OC(F)F [Example 158, 4-Chloro-5-(2-(difluoromethoxy)-4-(4,4,4-trifluorobutyl)phenyl)-N-(((1s,4s)-1-hydroxy-4-(methylsulfonyl)cyclohexyl)methyl)-1-methyl-1H-pyrazole-3-carboxamide] | 3.4 | 16 | – | inhibition at 3 µM (full-length human RORγt; [4]): 111%
CCn1nc(C(=O)NC[C@]2(O)CC[C@@H](S(C)(=O)=O)CC2)c(Cl)c1-c1ccc(N[C@H](C)C(F)(F)F)cc1 [Example 195, 4-Chloro-1-ethyl-N-(((1s,4S)-1-hydroxy-4-(methylsulfonyl)cyclohexyl)methyl)-5-(4-(((R)-1,1,1-trifluoropropan-2-yl)amino)phenyl)-1H-pyrazole-3-carboxamide] | 300 | 52 | – | inhibition at 6 µM (full-length human RORγt; HEK-293T): 96%
CCn1nc(C(=O)NC[C@]2(C#N)CC[C@H](S(C)(=O)=O)CC2)c(Cl)c1-c1ccc(N[C@H](C)C(F)(F)F)cc1OC [Example 33, 4-Chloro-N-(((1r,4R)-1-cyano-4-(methylsulfonyl)cyclohexyl)methyl)-1-ethyl-5-(2-methoxy-4-(((R)-1,1,1-trifluoropropan-2-yl)amino)phenyl)-1H-pyrazole-3-carboxamide] | 1100 | 450 | – | inhibition at 6 µM (full-length human RORγt; [2]): 88%
